One may read the inhibition as how much of the control response was suppressed. As a reminder, the IC50 is the midpoint of a concentration-inhibition curve. Usually Ki stands for a dissociation constant, usually derived from enzyme kinetics or from competition with a known ligand.

Each structure is given as a SMILES string.

Assay [1] deals with T1, Lysosomal acid glucosylceramidase (Homo sapiens) (UniProt P04062).
T1 sequence (whole entry): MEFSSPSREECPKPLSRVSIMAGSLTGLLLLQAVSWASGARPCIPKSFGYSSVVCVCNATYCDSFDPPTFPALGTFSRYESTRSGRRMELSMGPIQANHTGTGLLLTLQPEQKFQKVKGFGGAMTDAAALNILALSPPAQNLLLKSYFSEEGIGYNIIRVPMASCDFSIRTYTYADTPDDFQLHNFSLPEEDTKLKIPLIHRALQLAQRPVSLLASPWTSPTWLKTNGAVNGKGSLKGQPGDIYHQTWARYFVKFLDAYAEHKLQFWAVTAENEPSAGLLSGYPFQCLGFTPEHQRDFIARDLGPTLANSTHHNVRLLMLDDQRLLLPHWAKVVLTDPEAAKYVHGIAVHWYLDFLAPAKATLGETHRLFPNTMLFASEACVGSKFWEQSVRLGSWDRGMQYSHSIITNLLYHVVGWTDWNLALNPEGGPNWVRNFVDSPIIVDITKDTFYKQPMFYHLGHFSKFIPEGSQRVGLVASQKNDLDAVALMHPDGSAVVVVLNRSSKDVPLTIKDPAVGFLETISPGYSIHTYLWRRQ
The assay can be described thus: Inhibition of human recombinant beta-glucocerebrosidase assessed as p-nitrophenolate accumulation at 1000 uM preincubated for 10 mins before p-nitrophenyl-beta-d-glucopyranoside addition measured after 10 mins by […].

Assay [2] concerns the target T2, Lysosomal acid glucosylceramidase (Homo sapiens, UniProt P04062).
T2 sequence (P04062 whole entry): T1 sequence (whole entry)
The assay can be described thus: Inhibition of human recombinant beta-glucocerebrosidase assessed as p-nitrophenolate accumulation preincubated for 10 mins before p-nitrophenyl-beta-d-glucopyranoside addition measured after 10 mins by […].

Assay [3] has as its target T1, Lysosomal acid glucosylceramidase (Homo sapiens). Kind of assay: Inhibition of misfolded beta-glucocerebrosidase in human gaucher cells assessed as increase in enzyme activity at 10 nM. It is filed as cell-based.

For `OCC(O)C[C@H]1N[C@@H](CO)[C@@H](O)[C@H](O)[C@H]1O` (stereo partly drawn), the inhibition in assay [1] was below 50%.
Turning to `CCCCCC[C@H]1N[C@@H](CO)[C@@H](O)[C@H](O)[C@H]1O`, the IC50 in assay [2] is 43 µM.
For the molecule `CCCCCCCCC[C@H]1NC[C@@H](O)[C@H](O)[C@H]1O`, the fold change (FC) in assay [3] turned out to be 2. Besides, the Ki in assay [2] came out at 2.2 nM.
As for `CCCCC1N[C@@H](CO)[C@@H](O)[C@H](O)[C@H]1O` (single isomer, unassigned), the IC50 in assay [2] worked out at 147 µM.
As for `CCCCCC[C@H]1NC[C@@H](O)[C@H](O)[C@H]1O`, the IC50 in assay [2] was 0.019 µM.
Regarding `CCC[C@H]1NC[C@@H](O)[C@H](O)[C@H]1O`, in assay [2], the IC50 turned out to be 0.56 µM.
Still for that read-out and setting: the value for `CCCC1N[C@@H](CO)[C@@H](O)[C@H](O)[C@H]1O` (single isomer, unassigned) was 487 µM.

For the origin of these results see ChEMBL document CHEMBL1156977, “Synthesis of new beta-1-C-alkylated imino-L-iditols: A comparative study of their activity as beta-glucocerebrosidase inhibitors” (Bioorg Med Chem, 2010).
